The text below walks through data of patent publication US20120164104A1, “Composition and Methods of Treating Viral Infections and Viral Induced Tumors” (Chimerix, Inc., priority 2009, published 2012).

One test relates to OVCAR-3. As to the kind of experiment: Cell proliferation assay (MTS or SRB), OVCAR-3. To be noted: Homo sapiens, 72 h; OVCAR-3, Ovarian, 3 days; read-out: IC50 (cell growth inhibition). It is filed as cell-based, human. How it is done: (§1) In vitro cell proliferation assays were performed using a 96-well plate based MTSassay (CellTiter 96° AqueousOne Solution Cell Proliferation Assay, Promega) or SRB (Sulforhodamine-B) assay (1-3). Briefly, cells were plated in 100 μl medium on day 0 in 96-well microtiter plates (Falcon #3072). On day 1, 10 μl of serial dilutions of each compound (Nine 1:2 dilutions with a starting concentration of 100 μM; in some cases, a starting concentration of 400 μM (CMX001 or Cidofovir) or 1 μM (some standard agents)) were added in triplicates to the plates. For standard agents using DMSO as solvent, serial dilutions of DMSO with a starting concentration of 0.5% were also included as a vehicle control.
(§2) After incubation for 3 days at 37° C. in a humidified incubator, viable cells were measured either by MTS or SRB assay. For MTS assay, 20 μl of a 20:1 mixture of (3-(4,5-dimethylthiazol-2-yl)-5-(3-carboxymethoxyphenyl)-2-(4-sulfophenyl)-2H-tetrazolium, inner salt (MTS, 2 mg/ml) and an electron coupling reagent, phenazine methosulfate (PMS, 0.92 mg/ml in DPBS), was added to each well and incubated for 3 hours at 37° C. Absorbance was measured using a BioTek Synergy™ HT Multiple Detection microplate reader at 490 nm. For SRB assay, cells were fixed in situ with 50 μL of cold trichloroacetic acid (TCA, final concentration at 10% w/v) for 60 minutes. Cells were then washed 5 times with H2O and air-dried.
(§3) Next, cells were stained with 20 μL of 0.2% SRB in 1% acetic acid and incubated at room temperature for 30 minutes and unbound SRB was removed by washing 5 times with 1% acetic acid and air-dried. Finally, bound SRB stain was solubilized in 50 μL of 50 μM Tris buffer before taking an optical density measurement at 570 nm using the BioTek microplate reader. The growth inhibition data were expressed as the percentage of cell survival calculated from the background corrected absorbance. The surviving fraction of cells was determined by dividing the mean absorbance values of the test agent-treated samples by the mean absorbance values of untreated control. […]

The subject of another test is MDA-231. As to the kind of experiment: Cell proliferation assay (MTS or SRB), MDA-231. It is filed as cell-based. The note with it: Homo sapiens, MDA-MB-231, 72 h; MDA-231, Breast, 3 days; read-out: IC50 (cell growth inhibition). The method, then: as §1, §2, §3
A further test concerns Het-1A. As to the kind of experiment: Cell proliferation assay (MTS or SRB), Het-1A. It is filed as cell-based. The note with it: Homo sapiens, 72 h, Esophagus (Normal), SV40 large T immortalized, 3 days, read-out: IC50 (cell growth inhibition). How it is done: as §1
After incubation for 3 days at 37° C. in a humidified incubator, viable cells were measured either by MTS or SRB assay. […]
Next, cells were stained with 20 μL of 0.2% SRB in 1% acetic acid and incubated at room temperature for 30 minutes and unbound SRB was removed by washing 5 times with 1% acetic acid and air-dried. Finally, bound SRB stain was solubilized in 50 μL of 50 μM Tris buffer before taking an optical density measurement at 570 nm using the BioTek microplate reader. The growth inhibition data were expressed as the percentage of cell survival calculated from the background corrected absorbance. […]

Another test has as its system SW 780. As to the kind of experiment: Cell proliferation assay (MTS or SRB), SW 780. It is filed as cell-based. To be noted: Homo sapiens, SW780, 72 h; SW 780, Bladder, 3 days; read-out: IC50 (cell growth inhibition). The method, then:
as §1, §2, §3

The test system of a further test is BK virus. As to the kind of experiment: Antiviral activity against BK virus in RPTEC cells (viral DNA by qPCR, 5 days). It is filed as cell-based. The note with it: for EC50: Betapolyomavirus hominis, RPTEC, RPTEC cells. The method, then: In order to test the activity of CMX001 to inhibit replication of BK virus, stocks of BK virus were prepared in HFF cells and dilutions of the virus stocks were used to infect primary human renal tubular epithelial cells (RPTECs). CMX001 were then added to the wells containing the infected cells and the plates were incubated for 5 days. Total DNA was prepared from the plates and viral DNA was quantified by qPCR.

For a further test, the system named is SCaBER. As to the kind of experiment: Cell proliferation assay (MTS or SRB), SCaBER. It is filed as cell-based. The note with it: Homo sapiens, 72 h, Bladder, 3 days, read-out: IC50 (cell growth inhibition). The method, then: as §1, §2, §3
The subject of a further test is SK-MEL-2. As to the kind of experiment: Cell proliferation assay (MTS or SRB), SK-MEL-2. It is filed as cell-based. The note with it: Homo sapiens, 72 h; SK-MEL-2, Skin (melanoma), 3 days; read-out: IC50 (cell growth inhibition). How it is done: as §1, §2
Next, cells were stained with 20 μL of 0.2% SRB in 1% acetic acid and incubated at room temperature for 30 minutes and unbound SRB was removed by washing 5 times with 1% acetic acid and air-dried. Finally, bound SRB stain was solubilized in 50 μL of 50 μM Tris buffer before taking an optical density measurement at 570 nm using the BioTek microplate reader. The growth inhibition data were expressed as the percentage of cell survival calculated from the background corrected absorbance. The surviving fraction of cells was determined by dividing the mean absorbance values of the test agent-treated samples by the mean absorbance values of untreated control.
Raw data were acquired using a BioTek Synergy™ HT Multiple Detection microplate reader and imported into Microsoft Excel for analysis. The average signal of each treatment was calculated from the triplicates after subtracting the blank signals. The percentage survival values were calculated using the following formula: % survival=(average signal of the drug treatment/average signal of untreated controls)×100. The data were finally imported into the Prism 4 software (GraphPad Software, San Diego, Calif.) to generate the dose-activity curves using non-linear regression curve fit and to calculate the IC50 values.

The test system of the next test is MCF-7. As to the kind of experiment: Cell proliferation assay (MTS or SRB), MCF-7. It is filed as cell-based. To be noted: Homo sapiens, MCF7, 72 h; MCF-7, Breast, 3 days; read-out: IC50 (cell growth inhibition). The method, then:
as §1, §2, §3

The test system of a further test is HT-29. As to the kind of experiment: Cell proliferation assay (MTS or SRB), HT-29. It is filed as cell-based, human. To be noted: Homo sapiens, 72 h; HT-29, Colon, 3 days; read-out: IC50 (cell growth inhibition). How it is done: as §1, §2, §3
The subject of another test is SK-OV-3. As to the kind of experiment: Cell proliferation assay (MTS or SRB), SK-OV-3. The note with it: Homo sapiens, 72 h; SK-OV-3, Ovarian, 3 days; read-out: IC50 (cell growth inhibition). It is filed as cell-based, human. The method, then: as §1, §2, §3
The next test has as its system PC-3. As to the kind of experiment: Cell proliferation assay (MTS or SRB), PC-3. It is filed as cell-based. The note with it: Homo sapiens, 72 h; PC-3, Prostate, 3 days; read-out: IC50 (cell growth inhibition). How it is done:
as §1, §2, §3

The test system of the next test is PANC-1. As to the kind of experiment: Cell proliferation assay (MTS or SRB), PANC-1. It is filed as cell-based. To be noted: Homo sapiens, 72 h; PANC-1, Pancreatic, 3 days; read-out: IC50 (cell growth inhibition). How it is done: as §1, §2, §3
For another test, the system named is Hep G2. As to the kind of experiment: Cell proliferation assay (MTS or SRB), Hep G2. It is filed as cell-based. The note with it: Homo sapiens, HepG2, 72 h; Hep G2, Liver, 3 days; read-out: IC50 (cell growth inhibition). The method, then: as §1, §2, §3
A further test relates to SK-HEP-1. As to the kind of experiment: Cell proliferation assay (MTS or SRB), SK-HEP-1. It is filed as cell-based. The note with it: Homo sapiens, SK-HEP1, 72 h; SK-HEP-1, Liver, 3 days; read-out: IC50 (cell growth inhibition). How it is done: as §1, §2, §3
In the next test the test system is DU 145. As to the kind of experiment: Cell proliferation assay (MTS or SRB), DU 145. To be noted: Homo sapiens, 72 h; DU 145, Prostate, 3 days; read-out: IC50 (cell growth inhibition). It is filed as cell-based. How it is done: as §1, §2, §3
The test system of another test is H460. As to the kind of experiment: Cell proliferation assay (MTS or SRB), H460. It is filed as cell-based. The note with it: Homo sapiens, NCI-H460, 72 h; H460, Lung, 3 days; read-out: IC50 (cell growth inhibition). The method, then: as §1, §2, §3
A further test has as its system Caki-2. As to the kind of experiment: Cell proliferation assay (MTS or SRB), Caki-2. It is filed as cell-based. The note with it: Homo sapiens, 72 h; Caki-2, Kidney, 3 days; read-out: IC50 (cell growth inhibition). The method, then: as §1, §2, §3
The next test deals with HCT-116. As to the kind of experiment: Cell proliferation assay (MTS or SRB), HCT-116. It is filed as cell-based, human. To be noted: Homo sapiens, 72 h; HCT-116, Colon, 3 days; read-out: IC50 (cell growth inhibition). How it is done: as §1, §2, §3

SMILES strings stand for the structures. Like-named read-outs stand apart in the source and are kept apart here. Bounds are passed on as bounds.

Regarding `Nc1ccn(C[C@@H](CO)OCP(=O)(O)O)c(=O)n1` [cidofovir], the IC50 with OVCAR-3, in the test with MDA-231, in the test on Het-1A, in the test with SW 780, with SCaBER and in the test on SK-MEL-2 was > 100 µM throughout. In addition, the IC50 in the test on MCF-7, with HT-29, with SK-OV-3, in the test on PC-3, in the test on PANC-1 and in the test on Hep G2 was > 100 µM in each case. In addition, the IC50 in the test on SK-HEP-1, in the test with DU 145, with H460, in the test on Caki-2 and in the test with HCT-116 was > 100 µM throughout. In addition, the EC50 in the test on BK virus (virus dilution 1:10, read-out: EC50) came to 2 µM; with BK virus (virus dilution 1:50, read-out: EC50), 0.65 µM; in the test on BK virus (virus dilution 1:100, read-out: EC50), 0.44 µM.

Regarding `CCCCCCCCCCCCCCCCOCCCOP(=O)(O)CO[C@H](CO)Cn1ccc(N)nc1=O` [CMX001], the IC50 in the test on OVCAR-3 came out at 73.3 µM; with MDA-231 it was 11.2 µM; in the test on Het-1A, 20.5 µM; with SW 780, 10 µM; with SCaBER it was 82.1 µM; with SK-MEL-2, 70.5 µM. The half-maximal inhibitory concentration (IC50) came out at 62 µM in the test on MCF-7; 48.6 µM in the test with HT-29; 95.5 µM in the test on SK-OV-3; 6.6 µM with PC-3; 91.5 µM in the test on PANC-1; 37.9 µM in the test with Hep G2. Further, the 50% inhibitory concentration (IC50) came out at 7.4 µM in the test on SK-HEP-1; 19 µM with DU 145; 12.4 µM with H460; 60 µM in the test on Caki-2; 20.9 µM in the test on HCT-116. The values for the EC50 in the test on BK virus (virus dilution 1:10), in the test on BK virus (virus dilution 1:50) and in the test on BK virus (virus dilution 1:100) were 0.016 µM, 0.0035 µM and 0.0037 µM, respectively. For the same compound, in the test with BK virus (RPTECs, in words), the “activity against BK virus replication” value is listed as “good activity”.

One may read the IC50 as the concentration needed to halve the response being measured. The EC50 is the concentration needed to bring the measured effect to its halfway point.
